Results taken from PubChem BioAssay AID1918940 (Molecular Pharmacology Branch, DTP, NCI, 2023).

Test system: NCI-H211 complex spheroid viability
Assay: Anticancer human tumor NCI-H211 cell line growth inhibition [LSD1];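 further: luminescent viability read after seven days of drug exposure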;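 on viability, T/C: 100% = DMSO vehicle control viability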
Details: for IC50: curve of first compound; for viability, T/C: stronger effect = lower value; active means viability on the fitted dose curve at most 10% of control; inactive means the rest
Method in brief: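 Multicellular complex spheroids of tumor cells with human endothelial cells (HUVEC) and mesenchymal stem cells; the LSD1 inhibitor iadademstat was combined with standard-of-care or investigational agents. Top concentration at or near clinical Cmax, half-log dilutions; final DMSO ≤0.25%.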

[1] = second compound 0.1 µM, first compound 0.000316 µM
[2] = second compound 0.1 µM, first compound 0.001 µM
[3] = second compound 0.1 µM, first compound 0.00316 µM
[4] = second compound 0.1 µM, first compound 0.01 µM
[5] = second compound 0.1 µM, first compound 0.0316 µM
[6] = second compound 0.1 µM, first compound 0.1 µM
[7] = second compound 0.316 µM, first compound 0.000316 µM
[8] = second compound 0.316 µM, first compound 0.001 µM
[9] = second compound 0.316 µM, first compound 0.00316 µM
[10] = second compound 0.316 µM, first compound 0.01 µM
[11] = second compound 0.316 µM, first compound 0.0316 µM
[12] = second compound 0.316 µM, first compound 0.1 µM
[13] = second compound 1 µM, first compound 0.000316 µM
[14] = second compound 1 µM, first compound 0.001 µM
[15] = second compound 1 µM, first compound 0.00316 µM
[16] = second compound 1 µM, first compound 0.01 µM
[17] = second compound 1 µM, first compound 0.0316 µM
[18] = second compound 1 µM, first compound 0.1 µM
[19] = second compound 3.16 µM, first compound 0.000316 µM
[20] = second compound 3.16 µM, first compound 0.001 µM
[21] = second compound 3.16 µM, first compound 0.00316 µM
[22] = second compound 3.16 µM, first compound 0.01 µM
[23] = second compound 3.16 µM, first compound 0.0316 µM
[24] = second compound 3.16 µM, first compound 0.1 µM
[25] = second compound 10 µM, first compound 0.000316 µM
[26] = second compound 10 µM, first compound 0.001 µM
[27] = second compound 10 µM, first compound 0.00316 µM
[28] = second compound 10 µM, first compound 0.01 µM
[29] = second compound 10 µM, first compound 0.0316 µM
[30] = second compound 10 µM, first compound 0.1 µM

CC(C)CC(NC(=O)C(Cc1ccccc1)NC(=O)c1cnccn1)B(O)O (stereo not given) + NC1CC1c1ccc(-c2cccc(O)c2)cc1
2.99 nM: IC50 (second compound 1 µM)
1.78 nM: IC50 (second compound 10 µM)
3.45 nM: IC50 (second compound 0.1 µM)
active: viability, T/C [4] 1.17% | viability, T/C [5] 0.06% | viability, T/C [6] 0.19% | viability, T/C [10] 1.97% | viability, T/C [11] 0.17% | viability, T/C [12] 0.17% | viability, T/C [16] 0.86% | viability, T/C [17] 0.09% | viability, T/C [18] 0.18% | viability, T/C [22] 1.3% | viability, T/C [23] 0.09% | viability, T/C [24] 0.19% | viability, T/C [28] 0.47% | viability, T/C [29] 0.18% | viability, T/C [30] 0.27%
3.26 nM: IC50 (second compound 0.316 µM)
inactive: viability, T/C [1] 112% | viability, T/C [2] 108% | viability, T/C [3] 54.1% | viability, T/C [7] 107% | viability, T/C [8] 119% | viability, T/C [9] 51.4% | viability, T/C [13] 83.4% | viability, T/C [14] 104% | viability, T/C [15] 47.8% | viability, T/C [19] 81.2% | viability, T/C [20] 102% | viability, T/C [21] 54.2% | viability, T/C [25] 70.8% | viability, T/C [26] 74.1% | viability, T/C [27] 27.7%
3.46 nM: IC50 (second compound 3.16 µM)

CC(C)CC(NC(=O)CNC(=O)c1cc(Cl)ccc1Cl)B1OC(=O)CC(CC(=O)O)(C(=O)O)O1 (stereo not given) + NC1CC1c1ccc(-c2cccc(O)c2)cc1
inactive: viability, T/C [1] 90.8% | viability, T/C [2] 76.5% | viability, T/C [3] 82.2% | viability, T/C [4] 61.9% | viability, T/C [5] 29.3% | viability, T/C [7] 91.6% | viability, T/C [8] 102% | viability, T/C [9] 97.5% | viability, T/C [10] 61.6% | viability, T/C [11] 30% | viability, T/C [13] 74.5% | viability, T/C [14] 83.2% | viability, T/C [15] 96.7% | viability, T/C [16] 57.4% | viability, T/C [17] 27.8% | viability, T/C [19] 75.3% | viability, T/C [20] 82.8% | viability, T/C [21] 93.4% | viability, T/C [22] 56.5% | viability, T/C [23] 24.5% | viability, T/C [25] 71% | viability, T/C [26] 70.3% | viability, T/C [27] 98.3% | viability, T/C [28] 38.5%
active: viability, T/C [6] 5.5% | viability, T/C [12] 5.69% | viability, T/C [18] 4.52% | viability, T/C [24] 4.84% | viability, T/C [29] 17.4% | viability, T/C [30] 2.36%
14.9 nM: IC50 (second compound 1 µM)
13.9 nM: IC50 (second compound 3.16 µM)
16 nM: IC50 (second compound 0.316 µM)
7.26 nM: IC50 (second compound 10 µM)
15.4 nM: IC50 (second compound 0.1 µM)

Nc1ccccc1NC(=O)c1ccc(CNC(=O)OCc2cccnc2)cc1 + NC1CC1c1ccc(-c2cccc(O)c2)cc1
< 9.49 nM: IC50 (second compound 0.316 µM) | IC50 (second compound 1 µM) | IC50 (second compound 3.16 µM)
12.2 nM: IC50 (second compound 0.1 µM)
inactive: viability, T/C (second compound 0.1 µM, first compound 0.00949 µM) 56.5% | viability, T/C (second compound 0.1 µM, first compound 0.03 µM) 26.4% | viability, T/C (second compound 0.316 µM, first compound 0.00949 µM) 46.8% | viability, T/C (second compound 0.316 µM, first compound 0.03 µM) 18.2% | viability, T/C (second compound 1 µM, first compound 0.00949 µM) 45.8% | viability, T/C (second compound 1 µM, first compound 0.03 µM) 25.1% | viability, T/C (second compound 3.16 µM, first compound 0.00949 µM) 43.4% | viability, T/C (second compound 3.16 µM, first compound 0.03 µM) 24.5% | viability, T/C (second compound 10 µM, first compound 0.00949 µM) 53.6% | viability, T/C (second compound 10 µM, first compound 0.03 µM) 36.1%
active: viability, T/C (second compound 0.1 µM, first compound 0.0949 µM) 4.02% | viability, T/C (second compound 0.1 µM, first compound 0.3 µM) 1.9% | viability, T/C (second compound 0.1 µM, first compound 0.949 µM) 1.18% | viability, T/C (second compound 0.1 µM, first compound 3 µM) 0.14% | viability, T/C (second compound 0.316 µM, first compound 0.0949 µM) 4.2% | viability, T/C (second compound 0.316 µM, first compound 0.3 µM) 2.36% | viability, T/C (second compound 0.316 µM, first compound 0.949 µM) 1.27% | viability, T/C (second compound 0.316 µM, first compound 3 µM) 0.1% | viability, T/C (second compound 1 µM, first compound 0.0949 µM) 3.68% | viability, T/C (second compound 1 µM, first compound 0.3 µM) 2.02% | viability, T/C (second compound 1 µM, first compound 0.949 µM) 1.28% | viability, T/C (second compound 1 µM, first compound 3 µM) 0.1% | viability, T/C (second compound 3.16 µM, first compound 0.0949 µM) 4.34% | viability, T/C (second compound 3.16 µM, first compound 0.3 µM) 3.1% | viability, T/C (second compound 3.16 µM, first compound 0.949 µM) 1.14% | viability, T/C (second compound 3.16 µM, first compound 3 µM) 0.14% | viability, T/C (second compound 10 µM, first compound 0.0949 µM) 5.02% | viability, T/C (second compound 10 µM, first compound 0.3 µM) 2.76% | viability, T/C (second compound 10 µM, first compound 0.949 µM) 0.95% | viability, T/C (second compound 10 µM, first compound 3 µM) 0.16%
12 nM: IC50 (second compound 10 µM)

O=C(c1cc(Cc2n[nH]c(=O)c3ccccc23)ccc1F)N1CCN(C(=O)C2CC2)CC1 + NC1CC1c1ccc(-c2cccc(O)c2)cc1
active: viability, T/C (second compound 0.1 µM, first compound 0.316 µM) 7.94% | viability, T/C (second compound 0.1 µM, first compound 1 µM) 5.7% | viability, T/C (second compound 0.1 µM, first compound 3.16 µM) 6.16% | viability, T/C (second compound 0.1 µM, first compound 10 µM) 5.03% | viability, T/C (second compound 0.316 µM, first compound 0.316 µM) 8.13% | viability, T/C (second compound 0.316 µM, first compound 1 µM) 5.19% | viability, T/C (second compound 0.316 µM, first compound 3.16 µM) 4.85% | viability, T/C (second compound 0.316 µM, first compound 10 µM) 5.84% | viability, T/C (second compound 1 µM, first compound 0.316 µM) 7.69% | viability, T/C (second compound 1 µM, first compound 1 µM) 5.3% | viability, T/C (second compound 1 µM, first compound 3.16 µM) 6.41% | viability, T/C (second compound 1 µM, first compound 10 µM) 5.15% | viability, T/C (second compound 3.16 µM, first compound 0.316 µM) 8.34% | viability, T/C (second compound 3.16 µM, first compound 1 µM) 5.75% | viability, T/C (second compound 3.16 µM, first compound 3.16 µM) 6.96% | viability, T/C (second compound 3.16 µM, first compound 10 µM) 5.88% | viability, T/C (second compound 10 µM, first compound 0.316 µM) 8.43% | viability, T/C (second compound 10 µM, first compound 1 µM) 5.92% | viability, T/C (second compound 10 µM, first compound 3.16 µM) 6.26% | viability, T/C (second compound 10 µM, first compound 10 µM) 6.28%
inactive: viability, T/C [5] 47.4% | viability, T/C [6] 25% | viability, T/C [11] 48.9% | viability, T/C [12] 24.5% | viability, T/C [17] 44% | viability, T/C [18] 22% | viability, T/C [23] 49.2% | viability, T/C [24] 19.5% | viability, T/C [29] 34.4% | viability, T/C [30] 17.2%
< 31.6 nM: IC50 (second compound 0.1 µM) | IC50 (second compound 0.316 µM) | IC50 (second compound 1 µM) | IC50 (second compound 3.16 µM) | IC50 (second compound 10 µM)
